Here are results for seven molecules from patent EP3056202A1, “BENZOPYRROLIDONE DERIVATIVES POSSESSING ANTIVIRAL AND ANTICANCER PROPERTIES” (Max-Planck-Gesellschaft zur Förderung der Wissenschaften …, priority 2015, dated 2016).

pEC50, pIC50: −log10 of the molar value. ≈ marks a conversion by molar mass, not a printed value.

The target of one data set is human Akt1 kinase (Homo sapiens, UniProt P31749). As to the kind of experiment: In vitro Akt1 assay (IMAP fluorescence polarization, phosphorylation of TAMRA-peptide). Format: biochemical. The settings on record: 40 µM ATP. As to the method: The inhibition of Akt1 by the compounds described in the present invention were determined measuring the phosphorylation of a fluorescently-labeled peptide (TAMRA-peptide) by human Akt1 kinase by fluorescent polarization using a commercially available IMAP Screening Express Assay Kit (Molecular Devices).
Akt1 kinase assays were performed in low protein binding 384-well plates (Corning). Test compounds were diluted in 100% DMSO to 5 mM stock concentration and then further dilutions were made in H2O or 100% DMSO to desirable concentrations.
Each reaction consisted of 5 nM enzyme: Akt1 kinase, 400 nM TAMRA-peptide (5-TAMRA-GRTGRRNSI-COOH; Genecust), 40 µM ATP and kinase buffer: 20 mM MES pH6, 1 mM DTT, 10 mM MgCl2, 2 mM MnCl2, 0.01 V/V% TritonX (all reagents from Sigma-Aldrich).
For each reaction, 4 or 6 µl containing TAMRA-peptide, ATP and kinase buffer were combined with 2 µl diluted compound in H2O or 0.02 µl compound in 100% DMSO. The kinase reaction was started by the addition of 2 µl diluted enzyme. The reaction was allowed to run for 1 hour at room temperature. The reaction was stopped by adding 15 µl IMAP beads (1:400 beads in progressive (75% buffer A, 25% buffer B) 1x buffer). After an additional hour, fluorescent polarization (Ex: 550-10 nm, Em: 590-10 nm, Dich: 561 nm) was measured using an Analyst GT (Molecular Devices).
In general terms: Fluorescence polarisation rises when a labelled molecule tumbles more slowly, as on binding a larger partner.

The next data set can be described thus: physchem. Format: physicochemical. The settings on record: kinetic from dmso stock. The method, then: Samples were diluted in DMSO (control), phosphate buffer pH = 7.4 and pH = 2.0, from 5mM stock solutions (solved in DMSO), with a 120 µM final concentration. The samples were incubated for 24 hours at room temperature followed by 30 minutes centrifugation at 3700 rpm. 40 µl of the supernatants were injected into HPLC (Waters 2795 Alliance HPLC equipped with Waters 996 PDA Detector (HPLC column: Waters XBridge, RP C18, 3.5 µm, 4.6 mm x 50 mm; gradient MeCN/H2O, containing 0.1% HCOOH: 5% MeCN (0.5 min), 5% to 95% MeCN (5 min), 95% MeCN (0.5 min); flow rate: 2.0 ml/min)) and the AUC values (measured on sample specific wavelength) of the buffered samples were divided by the AUC values (same wavelength as buffered samples') of the DMSO control samples. Table 3: Solubility in water for several compounds according to general formula (I)

For data set [1], the system named is H1 N1 influenza virus strain A/WSN/33. As to the kind of experiment: microbe, parasite or virus in culture. Format: cell-based. The settings on record: 36 h, read-out: Influenza replication IC50.
A further data set addresses T1, human Clk1 kinase (Homo sapiens, UniProt P49759).
T1 construct: Each reaction consisted of 4 nM enzyme: Clk1 kinase domain
As to the kind of experiment: In vitro Clk1 assay (IMAP fluorescence polarization). It counts as biochemical. The settings on record: 0.45 µM ATP. As to the method: The activity of the compounds described in the present invention can be determined by the following kinase assay, which measures the phosphorylation of a fluorescently-labeled peptide by human Clk1 kinase by fluorescent polarization using a commercially available IMAP Screening Express Assay Kit (Molecular Devices).
Clk1 kinase assays were performed in low protein binding 384-well plates (Corning). Test compounds were diluted in 100% DMSO to 5 mM stock concentration and then further dilutions were made in H2O or 100% DMSO to desirable concentrations.
Each reaction consisted of 4 nM enzyme: Clk1 kinase domain, 400 nM TAMRA-AFRREWSPGKEAKK-NH2 (Genecust), 0.45 µM ATP (Sigma) and kinase buffer: 20 mM TRIS pH 8, 1 mM DTT, 0.4 mM MgCl2, 0.4 mM MnCl2, 0.01 V/V% Tween20 (all reagents from Sigma-Aldrich)
For each reaction, 4 or 6 µl containing TAMRA-peptide, ATP and kinase buffer were combined with 2 µl diluted compound in H2O or 0.02 µl compound in 100% DMSO. The kinase reaction was started by the addition of 2 µl diluted enzyme. The reaction was allowed to run for 1 hour at room temperature. The reaction was stopped by adding 15 µl IMAP beads (1:600 beads in progressive (80 % buffer A, 20% buffer B) 1x buffer). After an additional hour, fluorescent polarization (Ex: 550-10 nm, Em: 590-10 nm, Dich: 561 nm) was measured using an Analyst GT (Molecular Devices).

Data set [2] relates to A549 human lung carcinoma cells. As to the kind of experiment: Cell-based EC50 determination, A549 cells (CellTiter-Glo cell viability). The settings on record: A549, 24 h, read-out: A549 EC50 24h. As to the method: A549 human lung carcinoma cells were cultured in RPMI 1640 medium (Sigma) supplemented with 10% fetal bovine serum (Sigma) and Antibiotic-Antimycotic (Sigma) in tissue culture flasks at 37°C in a humidified 5% CO2 atmosphere. Cells were routinely assayed for mycoplasma contamination.
Two thousand cells were plated in 384-well tissue culture plates, and treated after 24 hours with a 10-point dilution series of the compounds (1.5 nM-30 uM), using the vehicle, DMSO as control. Cells were incubated for 24 hours after which the relative cell density was determined by CellTiter-Glo Luminescent Cell Viability Assay (Promega). This method determines the number of metabolically active cells in the culture based on quantitation of the ATP present. The luminescent signal was measured with an Analyst GT multimode reader (Molecular Devices). […]
Background: ATP-based viability assays read luminescence as a measure of living cells.

Data set [3] concerns HepG2 hepatoblastomaderived cell line. Nature of the data set: In vitro growth inhibition, HepG2 (CellTiter-Glo). Format: cell-based. The settings on record: Homo sapiens, 72 hours incubation.
Data set [4] concerns HCT-116 human colon carcinoma cell line. As to the kind of experiment: In vitro growth inhibition of colon carcinoma cells, HCT-116 (CellTiter-Glo). It counts as cell-based. The settings on record: 72 hours incubation, read-out: HCT116 EC50.
Data set [5] deals with HKE3 human colon carcinoma cell line. Nature of the data set: In vitro growth inhibition of colon carcinoma cells, HKE3 (CellTiter-Glo). Format: cell-based. The settings on record: 72 hours incubation.

Sequence of human Akt1 kinase (P31749 whole entry): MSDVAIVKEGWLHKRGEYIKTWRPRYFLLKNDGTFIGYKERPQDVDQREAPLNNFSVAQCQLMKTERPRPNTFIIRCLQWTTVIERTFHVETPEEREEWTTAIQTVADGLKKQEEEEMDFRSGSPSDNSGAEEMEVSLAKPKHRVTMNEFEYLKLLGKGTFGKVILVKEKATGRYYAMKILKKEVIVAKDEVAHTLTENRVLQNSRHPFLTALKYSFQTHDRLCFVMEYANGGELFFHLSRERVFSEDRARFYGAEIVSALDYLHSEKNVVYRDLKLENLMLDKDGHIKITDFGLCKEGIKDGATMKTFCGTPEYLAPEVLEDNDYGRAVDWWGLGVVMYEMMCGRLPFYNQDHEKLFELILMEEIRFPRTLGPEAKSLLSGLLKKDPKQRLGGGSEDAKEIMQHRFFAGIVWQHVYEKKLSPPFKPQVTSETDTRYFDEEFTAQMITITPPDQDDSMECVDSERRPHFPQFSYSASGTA
T1 sequence (P49759 161-477 limits assumed): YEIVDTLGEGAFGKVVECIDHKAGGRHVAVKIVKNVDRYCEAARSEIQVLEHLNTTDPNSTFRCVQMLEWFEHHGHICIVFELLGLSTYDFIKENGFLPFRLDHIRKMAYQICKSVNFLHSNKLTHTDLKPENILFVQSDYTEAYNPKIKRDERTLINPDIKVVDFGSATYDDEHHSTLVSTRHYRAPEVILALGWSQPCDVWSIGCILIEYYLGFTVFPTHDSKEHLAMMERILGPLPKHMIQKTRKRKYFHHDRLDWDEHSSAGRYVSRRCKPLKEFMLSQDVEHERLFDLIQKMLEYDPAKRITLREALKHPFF

By pIC50 is commonly meant the IC50 on a negative log10 scale, so that one unit is a factor of ten. For orientation: solubility means the dissolved amount per volume that the medium holds. Higher therefore signals a readily soluble substance. As usually defined, the pEC50 is the negative decadic logarithm of the EC50, by convention in mol/L. Regarding `CC[C@H](NC(=O)c1ccc2c(c1)/C(=C(/Nc1ccc(CN3CCCCC3)cc1)c1ccccc1)C(=O)N2)c1ccccc1` [Compound 32, (3Z)-2-oxo-3-(phenyl{[4-(piperidin-1-ylmethyl)phenyl]amino}methylene)-N-[(1S)-1-phenylpropyl]indoline-5-carboxamide], the results for the pIC50 (at human Akt1 kinase; in data set [1]; on human Clk1 kinase) were less than 4.90, 5.00 and 7.00, respectively. The solubility at 24 h in “physchem” (pH 2, aqueous buffer) is 110 to 120 µM (≈ 62.8 to 68.5 µg/mL); in the data set “physchem” (pH 7.4, aqueous buffer), less than 10 µM. Further, the pEC50 in data set [2] was 5.20.

Regarding `COc1cccc([C@@H](C)NC(=O)c2ccc3c(c2)/C(=C(/Nc2ccc(CN4CCN(C)CC4)cc2)c2ccccc2)C(=O)N3)c1` [Compound 35, (3Z)-N-[(1R)-1-(3-methoxyphenyl)ethyl]-3-[({4-[(4-methylpiperazin-1-yl)methyl]phenyl}amino)(phenyl)methylene]-2-oxoindoline-5-carboxamide], the pEC50 in data set [3] was 5.67; in data set [4], 7.52; in data set [5] it was 7.70; in data set [2], 5.30. The pIC50 against human Akt1 kinase was 5.60; in data set [1], 7.70; against human Clk1 kinase, 8.00. Also, the solubility at 24 h fell in the range of 110 to 120 µM (≈ 66.2 to 72.2 µg/mL) in the data set “physchem” (pH 2, aqueous buffer) and 10 to 20 µM (≈ 6.02 to 12 µg/mL) in “physchem” (pH 7.4, aqueous buffer).

Take `C[C@@H](NC(=O)c1ccc2c(c1)/C(=C(/Nc1ccc(CN3CCN(C)CC3)cc1)c1ccccc1)C(=O)N2)c1cccc(Cl)c1` [Compound 36, (3Z)-N-[(1R)-1-(3-chlorophenyl)ethyl]-3-[({4-[(4-methylpiperazin-1-yl)methyl]phenyl}amino)(phenyl)methylene]-2-oxoindoline-5-carboxamide]: the pEC50 in data set [3] is 6.19; in data set [4], 7.70; in data set [5] it was 7.70; in data set [2], 5.75. The results for the pIC50 (on human Akt1 kinase; in data set [1]; against human Clk1 kinase) were 6.48, more than 8.00 and 7.70, respectively. Also, the solubility at 24 h in the data set “physchem” (pH 2, aqueous buffer) is 100 to 110 µM (≈ 60.6 to 66.7 µg/mL); in “physchem” (pH 7.4, aqueous buffer), less than 10 µM.

On to `CC[C@@H](NC(=O)c1ccc2c(c1)/C(=C(/Nc1ccc(CN3CCN(C)CC3)cc1)c1ccccc1)C(=O)N2)c1ccccc1` [Compound 37, (3Z)-3-[({4-[(4-methylpiperazin-1-yl)methyl]phenyl}amino)(phenyl)methylene]-2-oxo-N-[(1R)-1-phenylpropyl]indoline-5-carboxamide], for which the pEC50 in data set [3] is 6.44; in data set [4], 9.00; in data set [5], more than 8.82; in data set [2] it was 5.70. Moreover, the pIC50 against human Akt1 kinase is 5.69; in data set [1] it was more than 8.00; against human Clk1 kinase, 8.00. For the same molecule, the solubility at 24 h in “physchem” (pH 2, aqueous buffer) is 110 to 120 µM (≈ 64.4 to 70.3 µg/mL); in the data set “physchem” (pH 7.4, aqueous buffer) it was less than 10 µM.

As for `C[C@@H](NC(=O)c1ccc2c(c1)/C(=C(/Nc1ccc(CN3CCN(C)CC3)cc1)c1ccccc1)C(=O)N2)c1ccccc1` [Compound 38, (3Z)-3-[({4-[(4-methylpiperazin-1-yl)methyl]phenyl}amino)(phenyl)methylene]-2-oxo-N-[(1R)-1-phenylethyl]indoline-5-carboxamide], the pEC50 in data set [3] is 5.95; in data set [4], 8.00; in data set [5], 8.00; in data set [2] it was 5.44. In addition, the pIC50 on human Akt1 kinase was 5.74; in data set [1] it was more than 8.00; against human Clk1 kinase it was 8.00. Also, the solubility at 24 h in “physchem” (pH 2, aqueous buffer) fell in the range of 110 to 120 µM (≈ 62.9 to 68.6 µg/mL); in “physchem” (pH 7.4, aqueous buffer), 10 to 20 µM (≈ 5.72 to 11.4 µg/mL).

With `COc1ccc(CNC(=O)c2ccc3c(c2)/C(=C(/Nc2ccc(CN4CCN(C)CC4)cc2)c2ccccc2)C(=O)N3)cc1OC` [Compound 39, (3Z)-N-(3,4-dimethoxybenzyl)-3-[({4-[(4-methylpiperazin-1-yl)methyl]phenyl}amino)(phenyl)methylene]-2-oxoindoline-5-carboxamide], the pEC50 in data set [3] was 4.62; in data set [4], 5.42; in data set [5], 5.53; in data set [2], 4.73. Besides, the pIC50 against human Akt1 kinase is 4.91; in data set [1], 7.00; at human Clk1 kinase, 8.00. Also, the solubility at 24 h was 110 to 120 µM (≈ 68 to 74.1 µg/mL) in the data set “physchem” (pH 2, aqueous buffer) and less than 10 µM in “physchem” (pH 7.4, aqueous buffer).

As for `COc1cccc(CNC(=O)c2ccc3c(c2)/C(=C(/Nc2ccc(CN4CCN(C)CC4)cc2)c2ccccc2)C(=O)N3)c1` [Compound 40, (3Z)-N-(3-methoxybenzyl)-3-[({4-[(4-methylpiperazin-1-yl)methyl]phenyl}amino)(phenyl)methylene]-2-oxoindoline-5-carboxamide], the pEC50 in data set [3] is 5.00; in data set [4], 6.96; in data set [5], 7.10; in data set [2], 4.83. The pIC50 is 5.47 on human Akt1 kinase, more than 8.00 in data set [1] and 8.00 against human Clk1 kinase. Also, the solubility at 24 h is 110 to 120 µM (≈ 64.6 to 70.5 µg/mL) in the data set “physchem” (pH 2, aqueous buffer) and less than 10 µM in “physchem” (pH 7.4, aqueous buffer).
